Assay results taken from patent publication US20250228239A1, “MOLECULES HAVING PESTICIDAL UTILITY, AND INTERMEDIATES, COMPOSITIONS, AND PROCESSES, RELATED THERETO” (priority 2024, published 2025).

Assays:
Type in all cases: in vivo
[1] = system: Beet Armyworm (Spodoptera exigua, LAPHEG); test: Bioassays on Beet Armyworm (BAW), 128-well diet tray assay; conditions: Spodoptera exigua; Beet Armyworm, Table ABC / ABC-DP rating; read-out: BAW rating
Procedure, shortened: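 Diet-overlay assay: 50 μg/cm^2 compound applied in 90:10 acetone-water to artificial diet, allowed to dry, then infested with 1–5 L2 larvae/well; 8 wells/compound; covered, vented; 25° C., 14:10 L:D, 5–7 d; % mortality per well, averaged.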

[2] = system: Cabbage Looper (Trichoplusia ni, TRIPNI); test: Bioassays on Cabbage Looper (CL), 128-well diet tray assay; conditions: Trichoplusia ni; Cabbage Looper, Table ABC / ABC-DP rating; read-out: CL rating
Procedure, shortened: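 Diet tray, 2nd instar, 1–5 larvae/well; 50 μg/cm^2 compound surface-applied (acetone:water 90:10), dried; 8 wells/treatment; 25° C, 14:10 L:D, 5–7 d; % mortality, mean of 8 wells.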

[3] = system: Yellow Fever Mosquito (Aedes aegypti, AEDSAE); conditions: Yellow Fever Mosquito, Table ABC / ABC-DP rating
Procedure, shortened: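 Larvae ~1 day old, in liver powder/water; compound from 4000 ppm DMSO stock diluted with water/acetone (90:10); 6 reps; lidded, RT, 3 d; mortality scored per well, rated.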

| Structure (SMILES) | pest or weed control at 50 µg/cm2 [1] | pest or weed control at 50 µg/cm2 [2] | YFM rating [3] |
| --- | --- | --- | --- |
| Cc1c(F)cc(NC(=O)[C@H]2[C@H](c3ccc(F)c(Cl)c3)C2(Cl)Cl)cc1C(=O)NCC(F)(F)F (relative stereo) [F2063, trans-5-(2,2-Dichloro-3-(3-chloro-4-fluorophenyl)cyclopropane-1-carboxamido)-3-fluoro-2-methyl-N-(2,2,2-trifluoroethyl)benzamide] | 50 to 100% | 50 to 100% | A (80–100) |
| Cc1c(F)cc(NC(=O)[C@H]2[C@H](c3ccc(F)c(Cl)c3)C2(Cl)Cl)cc1C(=O)NCC(F)(F)C(F)(F)F (relative stereo) [F2064, trans-5-(2,2-Dichloro-3-(3-chloro-4-fluorophenyl)cyclopropane-1-carboxamido)-3-fluoro-2-methyl-N-(2,2,3,3,3-pentafluoropropyl)benzamide] | 50 to 100% | 50 to 100% | A (80–100) |
| O=C(NCCNC(=O)C(F)(F)F)c1cc(NC(=O)[C@H]2[C@H](c3cc(Cl)cc(Cl)c3)C2(Cl)Cl)ccc1Cl (relative stereo) [F2066, trans-2-Chloro-5-(2,2-dichloro-3-(3,5-dichlorophenyl)cyclopropane-1-carboxamido)-N-(2-(2,2,2-trifluoroacetamido)ethyl)benzamide] | 50 to 100% | 50 to 100% | A (80–100) |
| CC(=O)NCCCNC(=O)c1cc(NC(=O)[C@H]2[C@H](c3cc(Cl)cc(Cl)c3)C2(Cl)Cl)ccc1Cl (relative stereo) [F2067, trans-N-(3-Acetamidopropyl)-2-chloro-5-(2,2-dichloro-3-(3,5-dichlorophenyl)cyclopropane-1-carboxamido)benzamide] | 50 to 100% | 50 to 100% | A (80–100) |
| CC(=O)NCCCCNC(=O)c1cc(NC(=O)[C@H]2[C@H](c3cc(Cl)cc(Cl)c3)C2(Cl)Cl)ccc1Cl (relative stereo) [F2068, trans-N-(4-Acetamidobutyl)-2-chloro-5-(2,2-dichloro-3-(3,5-dichlorophenyl)cyclopropane-1-carboxamido)benzamide] | 50 to 100% | 50 to 100% | A (80–100) |
| CC(=O)NCCCCCNC(=O)c1cc(NC(=O)[C@H]2[C@H](c3cc(Cl)cc(Cl)c3)C2(Cl)Cl)ccc1Cl (relative stereo) [F2069, trans-N-(5-Acetamidopentyl)-2-chloro-5-(2,2-dichloro-3-(3,5-dichlorophenyl)cyclopropane-1-carboxamido)benzamide] | 50 to 100% | 50 to 100% | A (80–100) |
| CNC(=O)CCNC(=O)c1cc(NC(=O)[C@H]2[C@H](c3cc(Cl)cc(Cl)c3)C2(Cl)Cl)ccc1Cl (relative stereo) [F2070, trans-2-Chloro-5-(2,2-dichloro-3-(3,5-dichlorophenyl)cyclopropane-1-carboxamido)-N-(3-(methylamino)-3-oxopropyl)benzamide] | 50 to 100% | 50 to 100% | A (80–100) |
| O=C(NCC(F)(F)c1ccccc1)c1cc(NC(=O)[C@H]2[C@H](c3cc(Cl)cc(Cl)c3)C2(Cl)Cl)ccc1Cl (relative stereo) [F2077, trans-2-Chloro-5-(2,2-dichloro-3-(3,5-dichlorophenyl)cyclopropane-1-carboxamido)-N-(2,2-difluoro-2-phenylethyl)benzamide] | 50 to 100% | 50 to 100% | B (More than 0 – Less than 80) |
| CCC(F)(F)CNC(=O)c1cc(NC(=O)[C@H]2[C@H](c3cc(Cl)cc(Cl)c3)C2(Cl)Cl)ccc1Cl (relative stereo) [F2086, trans-2-Chloro-5-(2,2-dichloro-3-(3,5-dichlorophenyl)cyclopropane-1-carboxamido)-N-(2,2-difluorobutyl)benzamide] | 50 to 100% | 50 to 100% | A (80–100) |
